Source: patent US20240317735A1, “HYDROISOQUINOLINE OR HYDRONAPHTHYRIDINE COMPOUNDS FOR THE TREATMENT OF AUTOIMMUNE DISEASE” (Hoffmann-La Roche Inc., priority 2020, published 2024)

Columns and labels:
[1] = Human microsome stability assay; type: in vitro ADME; settings: 1 μM test compound, 0.5 mg/mL liver microsomal protein, 37° C., pH 7.4
Procedure: The human microsomal stability assay is used for early assessment of metabolic stability of a test compound in human liver microsomes.
Human liver microsomes (Cat. NO.: 452117, Corning, USA; Cat. NO.: H2610, Xenotech, USA) were preincubated with test compound for 10 minutes at 37° C. in 100 mM potassium phosphate buffer, pH 7.4. The reactions were initiated by adding NADPH regenerating system. The final incubation mixtures contained 1 μM test compound, 0.5 mg/mL liver microsomal protein, 1 mM MgCl2, 1 mM NADP, 1 unit/mL isocitric dehydrogenase and 6 mM isocitric acid in 100 mM potassium phosphate buffer, pH 7.4. After incubation times of 0, 3, 6, 9, 15 and 30 minutes at 37° C., 300 μL of cold acetonitrile (including internal standard) was added to 100 μL incubation mixture to terminate the reaction. Following precipitation and centrifugation, the amount of compound remaining in the samples were determined by LC-MS/MS. Controls of no NADPH regenerating system at zero and 30 minutes were also prepared and analyzed.

human TLR7 = molecular target: T1, human TLR7 (Homo sapiens, UniProt Q9NYK1); test: HEK293-Blue-hTLR-7 cells assay (SEAP reporter, R848 stimulation); type: cell-based; settings: HEK293-Blue-hTLR7 cells, R848, 20 hrs; read-out: HEK/hTLR7 IC50
T1 construct: host or cells: HEK293 (HEK-Blue hTLR7)
T1 sequence (Q9NYK1 27-1049): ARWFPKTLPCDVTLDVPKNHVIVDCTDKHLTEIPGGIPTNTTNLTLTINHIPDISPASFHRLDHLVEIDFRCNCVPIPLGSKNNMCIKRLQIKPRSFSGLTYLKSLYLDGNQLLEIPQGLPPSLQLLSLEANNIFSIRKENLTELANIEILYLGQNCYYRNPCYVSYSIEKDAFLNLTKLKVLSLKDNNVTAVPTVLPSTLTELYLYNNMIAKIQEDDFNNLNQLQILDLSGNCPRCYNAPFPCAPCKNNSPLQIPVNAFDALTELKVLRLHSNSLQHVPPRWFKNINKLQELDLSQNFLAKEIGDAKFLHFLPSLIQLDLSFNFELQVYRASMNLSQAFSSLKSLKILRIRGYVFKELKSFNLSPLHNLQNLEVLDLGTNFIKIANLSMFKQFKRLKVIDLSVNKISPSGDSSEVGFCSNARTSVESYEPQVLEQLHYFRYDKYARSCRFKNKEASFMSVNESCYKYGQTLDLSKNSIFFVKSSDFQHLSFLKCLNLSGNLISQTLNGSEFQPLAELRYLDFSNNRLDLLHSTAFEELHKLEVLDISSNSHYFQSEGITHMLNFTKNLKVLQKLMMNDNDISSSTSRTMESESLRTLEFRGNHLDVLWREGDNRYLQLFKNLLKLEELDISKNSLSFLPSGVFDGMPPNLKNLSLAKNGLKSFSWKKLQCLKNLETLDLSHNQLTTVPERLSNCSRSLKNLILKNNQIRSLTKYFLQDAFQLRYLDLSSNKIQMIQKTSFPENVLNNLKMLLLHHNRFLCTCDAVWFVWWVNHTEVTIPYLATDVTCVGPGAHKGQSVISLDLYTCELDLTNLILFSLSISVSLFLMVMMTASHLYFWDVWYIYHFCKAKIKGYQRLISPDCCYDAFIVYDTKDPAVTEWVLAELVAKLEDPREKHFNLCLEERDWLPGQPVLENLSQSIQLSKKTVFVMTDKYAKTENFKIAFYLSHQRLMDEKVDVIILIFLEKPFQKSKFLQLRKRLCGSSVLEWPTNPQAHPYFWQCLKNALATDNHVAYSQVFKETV
Procedure: The following tests were carried out in order to determine the activity of the compounds of formula (I) and (Ia) in HEK293-Blue-hTLR-7/8/9 cells assay.
A stable HEK293-Blue-hTLR-7 cell line was purchased from InvivoGen (Cat. #: hkb-htlr7, San Diego, California, USA). These cells were originally designed for studying the stimulation of human TLR7 by monitoring the activation of NF-κB. A SEAP (secreted embryonic alkaline phosphatase) reporter gene was placed under the control of the IFN-β minimal promoter fused to five NF-κB and AP-1-binding sites. The SEAP was induced by activating NF-κB and AP-1 via stimulating HEK-Blue hTLR7 cells with TLR7 ligands. Therefore the reporter expression w % as declined by TLR7 antagonist under the stimulation of a ligand, such as R848 (Resiquimod), for incubation of 20 hrs. The cell culture supernatant SEAP reporter activity was determined using QUANTI-Blue™ kit (Cat. #: rep-qb1, Invivogen, San Diego, Ca, USA) at a wavelength of 640 nm, a detection medium that turns purple or blue in the presence of alkaline phosphatase.
HEK293-Blue-hTLR7 cells were incubated at a density of 250,000˜450,000 cells/mL in a volume of 170 μL in a 96-well plate in Dulbecco's Modified Eagle's medium (DMEM) containing 4.5 g/L glucose, 50 U/mL penicillin, […], […] Normocin, 2 mM L-glutamine, 10% (v/v) heat-inactivated fetal bovine serum with addition of 20 μL test compound in a serial dilution in the presence of final DMSO at 1% and 10 μL of 20 uM R848 in above DMEM, perform incubation under 37° C. in a C02 incubator for 20 hrs. Then 20 μL of the supernatant from each well was incubated with 180 μL Quanti-blue substrate solution at 37° C. for 2 hrs and the absorbance was read at 620˜655 nm using a spectrophotometer. The signaling pathway that TLR7 activation leads to downstream NF-κB activation has been widely accepted, and therefore similar reporter assay was modified for evaluating TLR7 antagonist.

Row | SMILES | Clearance of Human microsome [1] | IC50 (human TLR7)
1 | C[C@H]1CN(c2ccnc3c2cnn3C)Cc2ccc(N3CC4(CCNCC4)OC3=O)cc21 [Example 26, 3-[(4R)-4-methyl-2-(1-methylpyrazolo[3,4-b]pyridin-4-yl)-3,4-dihydro-1H-isoquinolin-6-yl]-1-oxa-3,8-diazaspiro[4.5]decan-2-one] | 6.2 mL/min/kg | 7 nM
2 | C[C@H]1CN(c2ccnc3c2cnn3C)Cc2ccc(N3C4CCC3CNC4)cc21 [Example 27, (4R)-6-(3,8-diazabicyclo[3.2.1]octan-8-yl)-4-methyl-2-(1-methylpyrazolo[3,4-b]pyridin-4-yl)-3,4-dihydro-1H-isoquinoline] | 6.2 mL/min/kg | 4 nM
3 | C[C@H]1CN(c2ccnc3c2cnn3C)Cc2ccc(N3CCC(N4CC(N)C4)CC3)cc21 [Example 28, 1-[1-[(4R)-4-methyl-2-(1-methylpyrazolo[3,4-b]pyridin-4-yl)-3,4-dihydro-1H-isoquinolin-6-yl]-4-piperidyl]azetidin-3-amine] | 6.2 mL/min/kg | 4 nM
4 | C[C@H]1CN(c2ccnc3c2cnn3C)Cc2ccc(N3CCC(N4CC[C@@H](N)[C@H](O)C4)CC3)cc21 [Example 29, trans-4-amino-1-[1-[(4R)-4-methyl-2-(1-methylpyrazolo[3,4-b]pyridin-4-yl)-3,4-dihydro-1H-isoquinolin-6-yl]-4-piperidyl]piperidin-3-ol] | 9.7 mL/min/kg | 9 nM
5 | Cc1cc(N2Cc3ccc(OC[C@@H]4CNCCN4)cc3[C@@H](C)C2)c2cnn(C)c2n1 [Example 31, (4R)-2-(1,6-dimethylpyrazolo[3,4-b]pyridin-4-yl)-4-methyl-6-[[(2S)-piperazin-2-yl]methoxy]-3,4-dihydro-1H-isoquinoline] | 7.9 mL/min/kg | 24 nM
6 | C[C@H]1CN(c2ccnc3c2cnn3C)Cc2ccc(N3CC4(CNC4)CC3=O)cc21 [Example 34, 6-[(4R)-4-methyl-2-(1-methylpyrazolo[3,4-b]pyridin-4-yl)-3,4-dihydro-1H-isoquinolin-6-yl]-2,6-diazaspiro[3.4]octan-7-one] | 10.1 mL/min/kg | 26 nM
7 | C[C@H]1CN(c2ccnc3c2cnn3C)Cc2ccc(N3CC4(CCNC4)OC3=O)cc21 (stereo partly drawn) [Example 35, 3-[(4R)-4-methyl-2-(1-methylpyrazolo[3,4-b]pyridin-4-yl)-3,4-dihydro-1H-isoquinolin-6-yl]-1-oxa-3,7-diazaspiro[4.4]nonan-2-one] | 8.4 mL/min/kg | 24 nM
8 | C[C@H]1CN(c2ccnc3c2cnn3C)Cc2ccc(N3CCN(Cc4cn(C)cn4)CC3)cc21 [Example 37, (4R)-4-methyl-6-[4-[(1-methylimidazol-4-yl)methyl]piperazin-1-yl]-2-(1-methylpyrazolo[3,4-b]pyridin-4-yl)-3,4-dihydro-1H-isoquinoline] | 8.2 mL/min/kg | 14 nM
9 | C[C@H]1CN(c2ccnc3c2cnn3C)Cc2ccc(N3CCN(CCN(C)C)CC3)cc21 [Example 38, N,N-dimethyl-2-[4-[(4R)-4-methyl-2-(1-methylpyrazolo[3,4-b]pyridin-4-yl)-3,4-dihydro-1H-isoquinolin-6-yl]piperazin-1-yl]ethanamine] | 6.2 mL/min/kg | 3 nM
10 | C[C@H]1CN(c2ccnc3c2cnn3C)Cc2ccc(OCCN3CCNCC3)cc21 [Example 40, (4R)-4-methyl-2-(1-methylpyrazolo[3,4-b]pyridin-4-yl)-6-(2-piperazin-1-ylethoxy)-3,4-dihydro-1H-isoquinoline] | 6.2 mL/min/kg | 8 nM
11 | C[C@H]1CN(c2ccnc3c2cnn3C)Cc2ccc(OC3CN(C4CCNCC4)C3)cc21 [Example 41, (4R)-4-methyl-2-(1-methylpyrazolo[3,4-b]pyridin-4-yl)-6-[1-(4-piperidyl)azetidin-3-yl]oxy-3,4-dihydro-1H-isoquinoline] | 6.2 mL/min/kg | 7 nM
12 | C[C@H]1CN(c2ccnc3c2cnn3C)Cc2ccc(O[C@@H]3C[C@H]4CNCCN4C3)cc21 [Example 42, (4R)-4-methyl-2-(1-methylpyrazolo[3,4-b]pyridin-4-yl)-6-[[(7R,8aS)-1,2,3,4,6,7,8,8a-octahydropyrrolo[1,2-a]pyrazin-7-yl]oxy]-3,4-dihydro-1H-isoquinoline] | 6.8 mL/min/kg | 3 nM
13 | C[C@H]1CN(c2ccnc3c2cnn3C)Cc2ccc(OC[C@H]3CNCCN3C)cc21 [Example 43, (4R)-4-methyl-2-(1-methylpyrazolo[3,4-b]pyridin-4-yl)-6-[[(2R)-1-methylpiperazin-2-yl]methoxy]-3,4-dihydro-1H-isoquinoline] | 6.2 mL/min/kg | 8 nM
14 | C[C@H]1CN(c2ccnc3c2cnn3C)Cc2ccc(OC[C@@H]3CNCCN3C=O)cc21 [Example 45, (2S)-2-[[(4R)-4-methyl-2-(1-methylpyrazolo[3,4-b]pyridin-4-yl)-3,4-dihydro-1H-isoquinolin-6-yl]oxymethyl]piperazine-1-carbaldehyde] | 10.4 mL/min/kg | 12 nM
15 | C[C@H]1CN(c2ccnc3c2cnn3C)Cc2ccc(N3C[C@@H](N)[C@H](O)C3)cc21 [Example 46, trans-4-amino-1-[(4R)-4-methyl-2-(1-methylpyrazolo[3,4-b]pyridin-4-yl)-3,4-dihydro-1H-isoquinolin-6-yl]pyrrolidin-3-ol] | 6.2 mL/min/kg | 10 nM
16 | Cc1cc(N2Cc3ccc(N4C[C@@H](N)[C@H](O)C4)cc3[C@@H](C)C2)c2cnn(C)c2n1 [Example 47, trans-4-amino-1-[(4R)-2-(1,6-dimethylpyrazolo[3,4-b]pyridin-4-yl)-4-methyl-3,4-dihydro-1H-isoquinolin-6-yl]pyrrolidin-3-ol] | 6.2 mL/min/kg | 13 nM
17 | Cc1cc(N2Cc3ccc(N4CC5(CNCCO5)C4)cc3[C@@H](C)C2)c2cnn(C)c2n1 [Example 48, 2-[(4R)-2-(1,6-dimethylpyrazolo[3,4-b]pyridin-4-yl)-4-methyl-3,4-dihydro-1H-isoquinolin-6-yl]-5-oxa-2,8-diazaspiro[3.5]nonane] | 7.2 mL/min/kg | 13 nM
